Drawing on patent US20240246920A1, “TRIAZOLE DERIVATIVES WITH ANTIFUNGAL ACTIVITY” (King's College London, priority 2020, published 2024), this text covers MIC for three compounds.

In brackets after ≈: the same amount, converted by molar mass. Where two headings read alike, the source gives them in different places.

Test [1] concerns C. albicans NCPF3281. Put plainly: Candida panel MIC, serial dilution in 96-well plates. The format is cell-based, Candida albicans. As to conditions: NCPF3281, read-out: MIC C. albicans NCPF3281. The gist of the method: (§1)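 RPMI/MOPS/2% glucose pH 7.0; 2-fold series 128→0.25 μg/mL; inoculum 0.5-5×10^5/mL; 37 °C, 24 h; OD530 read; MIC at ≥50% growth inhibition vs drug-free control.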

The subject of test [2] is C. glabrata NCPF8018. Described as above. The format is cell-based, Candida glabrata. As to conditions: Nakaseomyces glabratus. The gist of the method:
(§2)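 MIC taken as lowest concentration inhibiting growth ≥50% relative to drug-free control, from OD530 after 24 hours at 37° C. Fungi at 0.5-5×10^5/mL were exposed to serially diluted compound in RPMI 1640/MOPS/2% glucose medium adjusted to pH 7.0.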

In test [3] the test system is C. krusei NCPF3876. Put plainly: microbe, parasite or virus in culture. The format is cell-based, Candida krusei. As to conditions: Pichia kudriavzevii. The gist of the method: as §2
In test [4] the test system is C. parapsilosis NCPF3209. The test is described as follows: microbe, parasite or virus in culture. The format is cell-based, Candida parapsilosis. As to conditions: Lodderomyces parapsilosis. The essentials:
as §2

Test [5] concerns Candida auris TDG2211. Put plainly: microbe, parasite or virus in culture. To be noted: Candidozyma auris, TDG2211; Table 4, extended panel; 24 hours, ≥50% inhibition; read-out: MIC Candida auris TDG2211. It is filed as cell-based. The gist of the method: (§3)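 Growth inhibition was scored by OD530 nm after a 24 h, 37° C incubation of C. auris (0.5-5×10^5/mL) with compound dilutions in buffered RPMI glucose medium.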

Test [6] has as its system Candida auris TDG2506. The test is described as follows: microbe, parasite or virus in culture. The format is cell-based. To be noted: Candidozyma auris, TDG2506; Table 4, extended panel; 24 hours, ≥50% inhibition; read-out: MIC Candida auris TDG2506. The essentials: as §3
The subject of test [7] is C. tropicalis NCPF8760. The test is described as follows: Candida panel MIC, serial dilution in 96-well plates. The format is cell-based. The essentials: as §1
Test [8] relates to Candida auris TDG1102. Described as above. The format is cell-based. As to conditions: Candidozyma auris, TDG1102; Table 4, extended panel; 24 hours, ≥50% inhibition; read-out: MIC Candida auris TDG1102. The essentials: as §1
The test system of test [9] is Candida auris TDG2512. The description is as above. The format is cell-based. To be noted: Candidozyma auris, TDG2512; Table 4, extended panel; 24 hours, ≥50% inhibition; read-out: MIC Candida auris TDG2512. The essentials:
as §1

In test [10] the test system is C. auris 8971. Described as above. It is filed as cell-based, Candida auris. As to conditions: Candidozyma auris, 8971; Table 4, extended panel; 24 hours, ≥50% inhibition; read-out: MIC C. auris 8971. The gist of the method:
as §3

The subject of test [11] is C. auris 8977. The description is as above. The format is cell-based, Candida auris. As to conditions: Candidozyma auris, 8977; Table 4, extended panel; 24 hours, ≥50% inhibition; read-out: MIC C. auris 8977. The essentials: as §3
The test system of test [12] is C. auris 8984. Described as above. The format is cell-based, Candida auris. As to conditions: Candidozyma auris, 8984; Table 4, extended panel; 24 hours, ≥50% inhibition; read-out: MIC C. auris 8984. The gist of the method: as §3
The subject of test [13] is C. albicans 3363. The test is described as follows: Candida albicans panel MIC. It is filed as cell-based. To be noted: Table 6, Candida albicans panel. As for the experimental part: (§4) The minimum inhibitory concentration of test compounds were determined in a panel of Candida species (see Table 4 below), using the a serial dilution method in 96-well plates using the following protocol.
(§5) Starter cultures of fungal strains to be tested were grown in 3 mL of RPMI 2% glucose media incubated at 37° C. with shaking at 200 rpm overnight. The culture media used was 900 mL H2O; 10.4 g RPMI 1640 (with L-glutamine and a pH indicator but without bicarbonate); 34.5 g MOPS and 18 g glucose. The pH of the media was adjusted to 7.0 with 1 M sodium hydroxide.
(§6) Solutions of the compound to be tested were prepared by dissolving the compound in DMSO and subsequently into media to the desired concentrations. 200 μL of compound solution was then added to the wells of the 96-well plate using a serial dilution method row-by row of the plate to give a compound concentration gradient across the plate of from 128 μg/mL to 0.25 μg/mL. The last two rows of each plate were control rows containing the culture media alone and the media plus fungi.
(§7) The fungi starter cultures were diluted 1:10 in water in cuvettes. This was then further diluted to an optical density (OD600) of 0.01 in media. 100 μL of the fungi was added to each well giving a starting concentration of fungus of 0.5-5×10^5/mL. One species of fungus was used on each plate. The plates were then held at 37° C. for 24 hours.
(§8) A plate reader was used to measure growth in each well at OD530 nm and the MIC was determined for each test compound. The MIC is defined as the lowest concentration giving rise to inhibition of ≥50% of that of the drug-free control well containing the fungus and media.
(§9) The compounds shown in Table 6 were tested against a further panel of Candida albicans.

In test [14] the test system is C. albicans 3645. Put plainly: Candida albicans panel MIC. It is filed as cell-based. As to conditions: Table 6, Candida albicans panel. As for the experimental part:
as §4, §5, §6, §7, §8, §9

In test [15] the test system is C. albicans 3880. The test is described as follows: Candida albicans panel MIC. The format is cell-based. As to conditions: Table 6, Candida albicans panel. As for the experimental part:
as §4, §5, §6, §7, §8, §9

Test [16] has as its system C. albicans 3881. The test is described as follows: Candida albicans panel MIC. It is filed as cell-based. To be noted: Table 6, Candida albicans panel. As for the experimental part:
as §4, §5, §6, §7, §8, §9

The subject of test [17] is C. albicans 3882. The test is described as follows: Candida albicans panel MIC. The format is cell-based. To be noted: Table 6, Candida albicans panel. As for the experimental part:
as §4, §5, §6, §7, §8, §9

For test [18], the system named is C. albicans 3990. The test is described as follows: Candida albicans panel MIC. To be noted: Table 6, Candida albicans panel. It is filed as cell-based. On the procedure: as §4, §5, §6, §7, §8, §9
The subject of test [19] is C. albicans 8112. Put plainly: Candida albicans panel MIC. It is filed as cell-based. To be noted: Table 6, Candida albicans panel. As for the experimental part:
as §4, §5, §6, §7, §8, §9

Test [20] has as its system C. auris TDG1912. Put plainly: Candida panel MIC, serial dilution in 96-well plates. The format is cell-based. To be noted: Candidozyma auris, TDG1912; Table 4; 24 hours, ≥50% inhibition; read-out: MIC C. auris TDG1912. The essentials:
as §1

Where [21] appears, read: Candida albicans, Table 4, common panel, 24 hours, ≥50% inhibition.
The mark [22] stands for this setting: NCPF8018, Table 4, common panel, 24 hours, ≥50% inhibition, read-out: MIC C. glabrata NCPF8018.
[23] abbreviates: NCPF3876, Table 4, common panel, 24 hours, ≥50% inhibition, read-out: MIC C. krusei NCPF3876.
Setting [24] is: NCPF3209, Table 4, common panel, 24 hours, ≥50% inhibition, read-out: MIC C. parapsilosis NCPF3209.
[25] abbreviates: NCPF8760, Table 4, common panel, 24 hours, ≥50% inhibition, read-out: MIC C. tropicalis NCPF8760.

Turning to `OC(CN1CCC(Nc2ccc(OCc3ccccc3)cc2)CC1)(Cn1cncn1)c1ccc(F)cc1F` (centres unmarked) [Example 90], the MIC was found to be 0.00391 µg/mL (≈ 0.00753 µM) in test [1] (setting [21]); 0.00391 µg/mL (≈ 0.00753 µM) in test [1] (Table 6, Candida albicans panel); 0.0625 µg/mL (≈ 0.12 µM) in test [2] (NCPF8018, read-out: MIC C. Glabrata NCPF8018); 0.0625 µg/mL (≈ 0.12 µM) in [2] (setting [22]); 0.0313 µg/mL (≈ 0.0602 µM) in [3] (NCPF3876, read-out: MIC C. Krusei NCPF3876); 0.0313 µg/mL (≈ 0.0602 µM) in [3] (setting [23]). For the same compound, the MIC in test [4] (NCPF3209, read-out: MIC C. Parapsilosis NCPF3209) was determined as 0.00391 µg/mL (≈ 0.00753 µM); in test [4] (setting [24]) it was 0.00391 µg/mL (≈ 0.00753 µM); in test [5] it was 0.003 µg/mL (≈ 0.00577 µM); in test [6], 0.003 µg/mL (≈ 0.00577 µM); in test [7] (setting [25]), 0.0625 µg/mL (≈ 0.12 µM); in test [7] (NCPF8760, read-out: MIC C. Tropicalis NCPF8760), 0.0625 µg/mL (≈ 0.12 µM). Moreover, the MIC in test [8] was 0.0156 µg/mL (≈ 0.0301 µM); in [9] it was 0.00391 µg/mL (≈ 0.00753 µM); in [10] it was 0.003 µg/mL (≈ 0.00577 µM); in test [11], 0.00781 µg/mL (≈ 0.015 µM); in test [12], 0.003 µg/mL (≈ 0.00577 µM); in test [13] it was 0.008 to 0.03 µg/mL (≈ 0.0154 to 0.0577 µM). Further, the MIC is 0.00391 µg/mL (≈ 0.00753 µM) in [14]; 0.00391 µg/mL (≈ 0.00753 µM) in test [15]; 0.0078 to 0.0313 µg/mL (≈ 0.015 to 0.0602 µM) in [16]; 0.00391 µg/mL (≈ 0.00753 µM) in [17]; 0.0039 µg/mL (≈ 0.00751 µM) in test [18]; 0.00391 µg/mL (≈ 0.00753 µM) in test [19].

For the compound `OC(CN1C[C@H]2CC(Nc3ccc(N4CCCCC4)cc3)C[C@H]2C1)(Cn1cncn1)c1ccc(F)cc1F` (some centres unmarked) [Example 100], the MIC is at most 0.03 µg/mL in test [1] (setting [21]); 2 µg/mL (≈ 3.83 µM) in [2] (setting [22]); 2 µg/mL (≈ 3.83 µM) in test [3] (setting [23]); at most 0.03 µg/mL in test [4] (setting [24]); 2 µg/mL (≈ 3.83 µM) in [5]; 4 µg/mL (≈ 7.65 µM) in test [6]. In addition, the MIC in test [20] is 8 µg/mL (≈ 15.3 µM); in test [7] (setting [25]), 8 µg/mL (≈ 15.3 µM); in test [8], 16 µg/mL (≈ 30.6 µM); in [9] it was 0.25 µg/mL (≈ 0.478 µM); in test [10] it was 1 µg/mL (≈ 1.91 µM); in test [11], 2 µg/mL (≈ 3.83 µM). Also, in test [12], the MIC was 4 µg/mL (≈ 7.65 µM).

With `OC(CN1C[C@H]2CC(Nc3ccc(F)cc3)C[C@H]2C1)(Cn1cncn1)c1ccc(F)cc1F` (some centres unmarked) [Example 101], the MIC is at most 0.03 µg/mL in [1] (setting [21]); 0.5 µg/mL (≈ 1.09 µM) in test [2] (setting [22]); 1 µg/mL (≈ 2.19 µM) in test [3] (setting [23]); at most 0.03 µg/mL in [4] (setting [24]); 0.125 to 2 µg/mL (≈ 0.273 to 4.37 µM) in test [5]; 4 µg/mL (≈ 8.74 µM) in test [6]. The MIC in test [20] turned out to be 1 µg/mL (≈ 2.19 µM); in [7] (setting [25]), 4 µg/mL (≈ 8.74 µM); in [8], 2 µg/mL (≈ 4.37 µM); in test [9], 0.125 µg/mL (≈ 0.273 µM); in test [10] it was 0.25 µg/mL (≈ 0.546 µM); in test [11], 0.25 µg/mL (≈ 0.546 µM). In addition, the MIC in test [12] is 4 µg/mL (≈ 8.74 µM).
